# Several values for one entry are separate records, joined by “and”; a condition that tells them apart may be missing. Identical values can stand only once.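 Five compound concentrations were applied to cells in 96-well plates for 48 hours; endpoints were derived by simple linear interpolation of the resulting dose-response curve. GI50 marks 50% less growth. TGI denotes the concentration required for complete inhibition of growth.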
# Tested on: MDA-MB-468 breast
# Experiment: NCI tumour cell line growth inhibition, 48 h
Structure (SMILES),GI50,TGI
C=CCSc1n[nH]c(-c2cccs2)n1,> 100 µM,> 100 µM
O=C(N/N=C/c1cc2ccccc2c2ccccc12)c1cc(O)c(O)c(O)c1,2.46 µM,6.88 µM
O=[N+]([O-])c1ccc(N(CCO)CCO)c2c1no[n+]2[O-],0.625 µM,2.86 µM
CCCn1cnc2c(c1=N)C(c1ccc(OC)cc1)c1sc3c(CC)cccc3c1O2 (stereo unspecified),0.422 µM,4.27 µM
O=C1Nc2ccccc2SC1C1SC(=S)N(Cc2ccccc2)C1=O (stereo unspecified),1.05 µM,23.4 µM
COC(=O)c1c2c(c(C)[n+]([O-])c1C)C(=O)C(NCc1ccc(F)c(Cl)c1)=CC2=O,1.12 µM,3.04 µM
CCn1c2ccccc2c2cc(-n3nncc3-c3ccccc3)ccc21,0.437 µM,> 100 µM
CS(=O)(=O)c1ccc(C(F)(F)F)cc1NC(=O)Nc1cnc(Oc2ccc(-c3cc(Cl)cnc3N)cc2)nc1,2.02 µM,7 µM
O=C(Nc1ccc(-n2cc(-c3ccncc3)c(-c3ccc(Cl)c(O)c3)n2)cc1)c1cc(Cl)cc(Cl)c1,6.07 µM,> 100 µM
Cc1cc(NC(=O)CCc2ccc(N3C(N)=NC(N)=NC3(C)C)cc2)ccc1S(=O)(=O)F,0.736 µM,> 82.9 µM
N#Cc1cccc(Nc2nccc(-c3cnn4ncccc34)n2)c1,0.00804 µM,0.0293 µM
COCCOC(C)C(/C=N/NC(N)=S)=N/NC(N)=S (stereo unspecified),0.0217 µM,> 100 µM
NC(N)=NC(N)=NCCc1ccccc1,6.58 µM and 15 µM,94.9 µM and > 100 µM
O=C1C(Nc2ccccn2)=C(I)C(=O)c2ncccc21,1.22 µM,2.77 µM
CCN(C)S(=O)(=O)Nc1cccc(Nc2ncnc3cc(NC(=O)CCl)ccc23)c1Cl,2.34 µM,6.7 µM
C=CC(=O)Nc1cc2c(Nc3ccc(OCc4ccccn4)c(Cl)c3)ncnc2cc1OCCN1CCOCC1,0.0143 µM,0.282 µM
CN(C)CCCC1(c2ccc(F)cc2)OCc2cc(-c3ccc4cc[nH]c4c3)ccc21 (stereo unspecified),1.75 µM,3.44 µM

Structure (SMILES),GI50,TGI
Cc1cc(N2CCN(C)CC2)nc(NC2CCCC(Nc3ccnc4cc(Cl)ccc34)C2)n1 (stereo unspecified),1.67 µM,4.36 µM
Cc1ccnc2c1NC(=O)c1cccnc1N2C1CC1,> 100 µM,> 100 µM
COc1cc2c(cc1OC)C(Sc1ccc(F)cc1)c1c(nc(N)c(C#N)c1N)O2 (stereo unspecified),0.511 µM,1.84 µM
O=C(NNc1nc2cc(F)ccc2n2c(CN3CC4(COC4)C3)ccc12)c1cnccn1,0.302 µM,1.24 µM
N#CC1=C(N)Oc2c(sc3c(F)cccc23)C1c1ccc([N+](=O)[O-])cc1 (stereo unspecified),0.0787 µM,0.902 µM
COc1cc2cc(C(=O)O)[nH]c2cc1OCc1ccccc1,> 100 µM,> 100 µM
CC/C(=C(\c1ccc(O)cc1)c1ccc(OCCNC)cc1)c1ccccc1,1.59 µM and 1.53 µM and 1.51 µM,3.2 µM and 2.98 µM and 3.21 µM
CCOC(=O)C(=Cc1ccc(Br)cc1)C(=O)OCC,1.67 µM,3.45 µM
Cc1ccc(NC2=C(Cl)C(=O)c3nc(C)ccc3C2=O)cc1,0.329 µM,1.31 µM
C[C@]12CC[C@@H]3c4ccc(O)cc4CC[C@H]3[C@@H]1CC[C@@H]2NS(=O)(=O)c1cccc(Br)c1,2.43 µM,11.5 µM
NC(=O)c1c(OCc2c(F)cc(Br)cc2F)nsc1NC(=O)NCCCCN1CCCC1,1.49 µM,3.18 µM
C#C[C@]1(O)CC[C@H]2[C@@H]3CC=C4c5nc(Nc6ccc(OC)cc6OC)sc5CC[C@]4(C)[C@H]3CC[C@@]21C,1.84 µM,4.08 µM
O=C(Oc1ccc([N+](=O)[O-])cc1)N1CCC(C(O)(c2ccc3c(c2)OCO3)c2ccc3c(c2)OCO3)CC1,> 100 µM,> 100 µM
COc1cc(/C=C2\C(=O)N(c3c(Cl)cccc3Cl)c3ccccc32)cc(OC)c1O,2.27 µM,12.9 µM
O=S(=O)(Nc1ccc(Cl)c(C(F)(F)F)c1)c1ccc(-c2cnc(C3CC3)o2)cc1,0.144 µM,3.1 µM
N#Cc1ccc(-n2cnc(NC(=O)[C@H]3CCN(C#N)C3)c2)cc1,0.337 µM,2.45 µM

# Reference: PubChem BioAssay (NCI)
